From article PMC12203311, “Design, synthesis, in silico and in vitro evaluation of pyrrole–indole hybrids as dual tubulin and aromatase inhibitors with potent anticancer activities” (RSC Advances, 2025)

Columns and labels:
Test in all cases: NCI60 five-dose screen
HL-60 (TB) = type: cell-based; conditions: Homo sapiens, leukemia
A549/ATCC = type: cell-based; conditions: Homo sapiens, NSC lung cancer
EKVX = type: cell-based; conditions: Homo sapiens, NSC lung cancer
HOP-62 = type: cell-based; conditions: Homo sapiens, HOP-62, NSC lung cancer
HOP-92 = type: cell-based; conditions: Homo sapiens, HOP-92, NSC lung cancer
NCI-H23 = type: cell-based; conditions: Homo sapiens, NCI-H23, NSC lung cancer
NCI-H322M = type: cell-based; conditions: Homo sapiens, NSC lung cancer
COLO 205 = type: cell-based, human; conditions: Homo sapiens
HCT-15 = type: cell-based; conditions: Homo sapiens, HCT-15, colon cancer
KM12 = type: cell-based; conditions: Homo sapiens, KM12, colon cancer
SW-620 = type: cell-based; conditions: Homo sapiens, SW-620, colon cancer
SF-268 = type: cell-based; conditions: Homo sapiens, SF-268, CNS cancer
SF-295 = type: cell-based; conditions: Homo sapiens, SF-295, CNS cancer
MALME-3M = type: cell-based; conditions: Homo sapiens, melanoma
SK-MEL-2 = type: cell-based; conditions: Homo sapiens, SK-MEL-2, melanoma
SK-MEL-28 = type: cell-based; conditions: Homo sapiens, SK-MEL-28, melanoma
UACC-62 = type: cell-based; conditions: Homo sapiens, UACC-62, melanoma
IGROV1 = type: cell-based; conditions: Homo sapiens, IGROV-1; IGROV1, ovarian cancer
OVCAR-3 = type: cell-based; conditions: Homo sapiens, OVCAR-3, ovarian cancer
NCI/ADR-RES = type: cell-based, human; conditions: Homo sapiens, ovarian cancer
SK-OV-3 = type: cell-based; conditions: Homo sapiens, SK-OV-3, ovarian cancer
A498 = type: cell-based; conditions: Homo sapiens, A498, renal cancer
RXF 393 = type: cell-based; conditions: Homo sapiens, RXF 393, renal cancer
SN12C = type: cell-based; conditions: Homo sapiens, renal cancer
TK-10 = type: cell-based; conditions: Homo sapiens, TK-10, renal cancer
PC-3 = type: cell-based; conditions: Homo sapiens, PC-3, prostate cancer
MDA-MB-231/ATCC = type: cell-based; conditions: Homo sapiens, breast cancer
HS 578T = type: cell-based; conditions: Homo sapiens, breast cancer
BT-549 = type: cell-based; conditions: Homo sapiens, BT-549, breast cancer
T-47D = type: cell-based; conditions: Homo sapiens, T47D, breast cancer
MDA-MB-468 = type: cell-based; conditions: Homo sapiens, MDA-MB-468, breast cancer
[1] = read-out: LC50 (the source's name)

O=C(N/N=C/c1cc(Cl)c[nH]1)c1[nH]c2ccc(Br)cc2c1-c1ccccc1 [Derivative 3h, (E)-5-Bromo-N′-((4-chloro-1H-pyrrol-2-yl)methylene)-3-phenyl-1H-indole-2-carbohydrazide]
GI50 (HL-60 (TB)): 185 nM
CC50 (HL-60 (TB); [1]): 886 nM
GI50 (A549/ATCC): 430 nM
CC50 (A549/ATCC; [1]): 47400 nM
GI50 (EKVX): 1280 nM
CC50 (EKVX; [1]): > 100000 nM
GI50 (HOP-62): 408 nM
CC50 (HOP-62; [1]): 34700 nM
GI50 (HOP-92): 1190 nM
CC50 (HOP-92; [1]): 55400 nM
GI50 (NCI-H23): 317 nM
CC50 (NCI-H23; [1]): 36500 nM
GI50 (NCI-H322M): 768 nM
CC50 (NCI-H322M; [1]): 92300 nM
CC50 (COLO 205; COLO 205, COLO 205, colon cancer, read-out: LC50 (the source's name)): 1880 nM
GI50 (COLO 205; COLO 205, colon cancer): 251 nM
GI50 (HCT-15): 302 nM
CC50 (HCT-15; [1]): 21900 nM
GI50 (KM12): 328 nM
CC50 (KM12; [1]): 20700 nM
GI50 (SW-620): 328 nM
CC50 (SW-620; [1]): 80900 nM
GI50 (SF-268): 388 nM
CC50 (SF-268; [1]): 77300 nM
GI50 (SF-295): 237 nM
CC50 (SF-295; [1]): 58500 nM
GI50 (MALME-3M): 645 nM
CC50 (MALME-3M; [1]): 46100 nM
GI50 (SK-MEL-2): 260 nM
CC50 (SK-MEL-2; [1]): 47900 nM
GI50 (SK-MEL-28): 582 nM
CC50 (SK-MEL-28; [1]): 47900 nM
GI50 (UACC-62): 559 nM
CC50 (UACC-62; [1]): 66300 nM
GI50 (IGROV1): 538 nM
GI50 (OVCAR-3): 270 nM
CC50 (OVCAR-3; [1]): 19700 nM
GI50 (NCI/ADR-RES): 200 nM
GI50 (SK-OV-3): 519 nM
CC50 (SK-OV-3; [1]): 45400 nM
GI50 (A498): 1450 nM
CC50 (A498; [1]): 42100 nM
GI50 (RXF 393): 219 nM
CC50 (RXF 393; [1]): 34300 nM
GI50 (SN12C): 391 nM
CC50 (SN12C; [1]): 15300 nM
GI50 (TK-10): 3910 nM
CC50 (TK-10; [1]): 83200 nM
GI50 (PC-3): 426 nM
CC50 (PC-3; [1]): 47600 nM
GI50 (MDA-MB-231/ATCC): 296 nM
CC50 (MDA-MB-231/ATCC; [1]): 26900 nM
GI50 (HS 578T): 284 nM
CC50 (HS 578T; [1]): > 100000 nM
GI50 (BT-549): 255 nM
CC50 (BT-549; [1]): 18100 nM
GI50 (T-47D): 546 nM
CC50 (T-47D; [1]): 92600 nM
GI50 (MDA-MB-468): 251 nM
CC50 (MDA-MB-468; [1]): 27800 nM
